From patent publication US8110550B2, “HDAC inhibitors and hormone targeted drugs for the treatment of cancer” (University of Maryland, Baltimore, priority 2007, dated 2012)
Entries after “also recorded” stand apart in the source; their conditions may differ. Where two headings read alike, the source gives them in different places.

Tests used:
SKBr3 = assay: MTT cell proliferation assay, SKBr3; format: cell-based; conditions: Her-2 status ++++, read-out: IC50 values for inhibition of ER-cell proliferation, SKBr3
Protocol: (§1) IC50 and IC25 values for inhibitors is calculated from the linear regression line of the plot of percentage inhibition versus log inhibitor concentration. These IC50 values is used for combination or sequencing studies. The effect of combination or sequence of treatment is determined at IC25 of each agent.
(§2) For a cell proliferation assay, 10^4 cells were plated in a 96 well plate and treated with indicated drugs for 6 days. The medium was replaced after 3 days. On day 7, 500 μg/ml of MTT solution was added to each well and cells incubated for 3 hours. The tetrazolium dye trapped inside the mitochondria of the cells was dissolved in DMSO and the absorbance was measured at 560 nm.

aromatase (CYP19) = assay: Western immunoblotting for aromatase protein expression in MDA-MB-231 cells; format: cell-based; conditions: 24 hour treatment
Description: (§3) Expression of ER and Aromatase proteins was examined by Western blotting. β-actin was used as a loading control.

ER- MDA-MB-231 cells = assay: MTT cell viability / proliferation assay, MDA-MB-231; format: cell-based
Protocol: as §1, §2

aromatase [1] = assay: Radiometric 3H2O release assay for aromatase activity in MDA-MB-231 cells; format: cell-based; parameters: aromatase activity: dose or concentration left out as unconfirmed; conditions: for aromatase activity after pre-treatment: MDA-MB-231 cells
Protocol: The aromatase activity assay was described by Yue et al. (1997). The expression and activation of aromatase was seen after treatment with HDACi. […] This up-regulation of aromatase activity was dose dependent.
150,000 cells were plated in IMEM without PR with 5% steroid free serum, 1% penicillin-streptomycin and 750 μg/ml G418. Next day the cells were incubated with 0.5 μCi of [1β^3H] androstenedione (Specific activity 23.5 Ci/mmole) in 1 ml of media containing 1% charcoal stripped serum for 18 hours. The medium was then collected and treated with TCA (trichloroacetic acid) to precipitate proteins. The residual steroids in the medium were extracted and removed with chloroform and further treated with a 2.5% charcoal suspension. The ^3H2O in the supernatant was measured using a scintillation counter. In this assay ^3H2O is released during conversion of [1β^3H] Δ4A to estrone, catalyzed by the enzyme aromatase. For pre-treatment studies, cells were plated as described above and then next day pre-treated with indicated agent for 24 hours before incubating with [1β^3H] Δ4A for 18 hours. The activity of the enzyme is corrected for protein concentration in the cells plated and treated.

Hs 578T = assay: MTT cell proliferation assay, Hs 578T; format: cell-based; conditions: Her-2 status +, read-out: IC50 values for inhibition of ER-cell proliferation, Hs 578T
Protocol: as §1, with “MTT assay was performed to measure viability of breast cancer cells after treatment with various test compounds (Sabnis et al. 2005). IC50 and” for “IC50 and”
as §2, with “Exemplary ER negative cell lines (MDA-MB-231) were used. For” for “For”

ERα = assay: Western immunoblotting for ERα protein expression in MDA-MB-231 cells; format: cell-based; conditions: 10 nM
Description: Protein expression of other ER inducible genes such as c-Myc and PgR can also be examined.
as §3

[2] = tested on: ERα, aromatase and androgen receptor; assay: Western blotting of xenograft tumors; format: in vivo, mice; conditions: MDA-MB-231 xenograft tumors
Protocol: (§4) Expression of ER and aromatase proteins was examined by Western blotting. β-actin was used as a loading control. The radiometric ^3H2O release assay for aromatase activity was performed as follows: the tumors were homogenized using ice-cold DPBS and the homogenate was used for the aromatase assay. ^3H2O release assay was performed using [1β^3H] androstenedione (Specific activity 23.5 Ci/mmole). The activity of the enzyme is corrected for protein concentration in the tumor homogenates.

aromatase [3] = assay: 3H2O release assay for aromatase activity in tumor homogenates; format: in vivo, mice; conditions: MDA-MB-231 xenograft tumors
Protocol: as §4

MDA-MB-231 xenografts = MDA-MB-231 xenografts in female ovariectomized nude mice; format: in vivo
Protocol: The tumors of MDA-MB-231 cells were grown in female ovariectomized nude mice. Sub-confluent cells were collected into Citric Saline, centrifuged and resuspended in Matrigel (10 mg/mL) at ˜2.5×10^7 cells/mL. Each mouse received subcutaneous inoculations in two sites per flank with 100 μL of cell suspension. Mice were then injected subcutaneously daily with 0.3% HPC in 0.9% NaCl (vehicle) until the tumors reached a measurable size (˜150 mm^3). At this point the mice were grouped such that the starting tumor volumes were not statistically different across the groups. The mice were injected with indicated agents (5× weekly) for indicated time. The tumors were measured weekly with calipers and the tumor volumes were calculated using the formula (4/3)πr1^2r2(r1≦r2).

[4] = Homo sapiens, MDA-MB-231, Her-2 status −, read-out: IC50 values for inhibition of ER-cell proliferation, MDA-MB-231

Molecule: CCCC(=O)O [BA, butyric acid]
- IC50 (SKBr3; Homo sapiens, SK-BR-3): 17.2 µM
- expression of aromatase up-regulated (aromatase (CYP19); 1 μM): 1.2 fold
- IC50 (ER- MDA-MB-231 cells; [4]): 20300 µM
- IC50 (ER- MDA-MB-231 cells; Homo sapiens, MDA-MB-231, MDA-MB-231 cells, single agent, read-out: IC50, inhibition of cell growth): 20300 µM
- growth inhibitory effect (ER- MDA-MB-231 cells; MDA-MB-231 cells, single agent): inhibited
- aromatase activity after pre-treatment (aromatase [1]): upregulated
- IC50 (Hs 578T; Homo sapiens, Hs-578T): 67900 µM

Molecule: CC(=O)Nc1ccc(C(=O)Nc2ccccc2N)cc1 [CJ-994, 4-acetylamino-N-(2′-aminophenyl)-benzamide]
- IC50 (SKBr3; Homo sapiens, SK-BR-3): 8.52 µM
- IC50 (ER- MDA-MB-231 cells; [4]): 97.8 µM
- IC50 (Hs 578T; Homo sapiens, Hs-578T): 0.122 µM

Molecule: O=C(CCCCCCC(=O)Nc1ccccc1)NO [SAHA, N′-hydroxy-N-phenyl-octanediamide]
- expression of aromatase up-regulated (aromatase (CYP19); 10 nM): 1.77 fold
- protein expression of ERα up-regulated (ERα): 9.9 fold
- aromatase activity after pre-treatment (aromatase [1]): upregulated
- IC50 (Hs 578T; Homo sapiens, Hs-578T): 0.0169 µM

Molecule: CC(C)(C#N)c1cc(Cn2cncn2)cc(C(C)(C)C#N)c1 [anastrozole]
- growth inhibitory effect (ER- MDA-MB-231 cells; MDA-MB-231 cells, single agent): refractory

Molecule: C=C1C[C@@H]2[C@H](CC[C@]3(C)C(=O)CC[C@@H]23)[C@@]2(C)C=CC(=O)C=C12 [exemestane]
- growth inhibitory effect (ER- MDA-MB-231 cells; MDA-MB-231 cells, single agent): refractory

Molecule: C[C@]12CC[C@@H]3c4ccc(O)cc4C[C@@H](CCCCCCCCC[S+]([O-])CCCC(F)(F)C(F)(F)F)[C@H]3[C@@H]1CC[C@@H]2O (stereo partly drawn) [fulvestrant]
- growth inhibitory effect (ER- MDA-MB-231 cells; MDA-MB-231 cells, single agent): refractory

Molecule: N#Cc1ccc(C(c2ccc(C#N)cc2)n2cncn2)cc1 [letrozole]
- IC50 (ER- MDA-MB-231 cells; Homo sapiens, MDA-MB-231, MDA-MB-231 cells, combined with MS-275 (0.1 nM), read-out: IC50 of letrozole for cell growth inhibition): 0.0154 µM
- IC50 (ER- MDA-MB-231 cells; Homo sapiens, MDA-MB-231, MDA-MB-231 cells, combined with SAHA, read-out: IC50 of letrozole for cell growth inhibition): 1.13 µM
- cell growth inhibition in combination (ER- MDA-MB-231 cells; MDA-MB-231 cells, letrozole combined with MS-275 (0.1 nM)): synergistically inhibit cell growth in a dose dependent manner
- cell growth inhibition in combination (ER- MDA-MB-231 cells; MDA-MB-231 cells, letrozole combined with SAHA): synergistically inhibit cell growth in a dose dependent manner
- growth inhibitory effect (ER- MDA-MB-231 cells; MDA-MB-231 cells, single agent): refractory; also recorded: did not inhibit growth

Molecule: CC/C(=C(\c1ccccc1)c1ccc(OCCN(C)C)cc1)c1ccccc1 [tamoxifen]
- growth inhibitory effect (ER- MDA-MB-231 cells; MDA-MB-231 cells, single agent): refractory

Molecule: N-(2-aminophenyl)-4-(N-(pyridin-3-ylmethoxycarbonyl)aminomethyl) benzamide [MS-275]
- expression of ERα, aromatase and androgen receptor in tumors [2]: upregulates
- IC50 (SKBr3): 6.82e-05 µM
- expression of aromatase up-regulated (aromatase (CYP19); 10 nM): 2.6 fold
- growth inhibitory effect (ER- MDA-MB-231 cells; MDA-MB-231 cells, single agent): significantly inhibited
- IC50 (ER- MDA-MB-231 cells; MDA-MB-231 cells, single agent, read-out: IC50, growth inhibition): 0.0817 µM
- intra-tumoral aromatase activity (aromatase [3]): upregulates intra-tumoral aromatase activity
- growth of MDA-MB-231 xenografts (MDA-MB-231 xenografts; 5x weekly dosing): inhibits growth of MDA-MB-231 xenografts
- effectiveness by route of administration (MDA-MB-231 xenografts; oral versus other route): more effective when given orally
- uterine weight (MDA-MB-231 xenografts; ovariectomized mice, bioassay for estrogenic/antiestrogenic effects): does not affect the uterine weight
- protein expression of ERα up-regulated (ERα): 8 fold
- aromatase activity after pre-treatment (aromatase [1]): upregulated
- aromatase activity (aromatase [1]; then 1β-3H-androstenedione 18 hours, basal 3.02): 15.193 pmoles/μg of protein/hour
- IC50 (Hs 578T): 0.0281 µM
